Reference: US20200392107A1, “CYCLIC AMINE DERIVATIVE AND MEDICAL USE THEREOF” (Toray Industries, Inc., priority 2018, published 2020)

How the values were obtained:
[1] = system: oxazolone-induced mouse atopic dermatitis model; test: Oxazolone-induced mouse atopic dermatitis model; type: in vivo; conditions: 10 mg/kg orally once daily for 15 days from sensitization day; BALB/c mice; vs vehicle, P<0.05
Description: Using increase in the ear thickness as an index of exacerbation of symptoms, the effect of the cyclic amine derivative (I) or a pharmacologically acceptable salt thereof in an oxazolone-induced mouse atopic dermatitis model was evaluated. The oxazolone-induced mouse atopic dermatitis model was prepared by a partially modified method by Nakajima et al. (Journal of Investigative Dermatology, 2014, Vol. 134, p. 2122-2130).
BALB/c mice (female, 7 weeks old) (Charles River Laboratories Japan, Inc.) were used at 8 weeks old after preliminary breeding. To the back of the mice, 25 μL of a 3 w/v % oxazolone solution dissolved in ethanol was applied to sensitize the mice. Every other day from 5 days to 13 days after the sensitization, 10 μL each of a 0.6 w/v % oxazolone solution dissolved in ethanol was applied to both sides of the right auricle of the sensitized mice to induce inflammation.
A test compound at a dose of 10 mg/kg was administered to the mice once daily for 15 days from the sensitization day to 14 days after sensitization. As the test compound, the compound of Example 1, the compound of Example 4, and the compound of Example 9 were used. The compound of Example 1, the compound of Example 4, and the compound of Example 9 were suspended in a 0.5 w/v % methylcellulose solution and orally administered. The group in which the compound of Example 1 was administered to mice was defined as the Example-1 compound administration group, the group in which the compound of Example 4 was administered was defined as the Example-4 compound administration group, and the group in which the compound of Example 9 was administered was defined as the Example-9 compound administration group. In the vehicle administration group, a vehicle of each test compound (0.5 w/v % methylcellulose solution) was similarly administered.
The right ear thickness before application of the oxazolone solution (before sensitization) on the sensitization day and the right ear thickness on the next day of final induction were measured with a digital micrometer (Mitutoyo Corporation). […]

[2] = system: mouse alopecia areata model; test: Mouse alopecia areata model; type: in vivo; conditions: 10 mg/kg orally once daily for 42 days, Day 49 to Day 90; C3H/HeJ mice
Description: The effect of the cyclic amine derivative (I) or a pharmacologically acceptable salt thereof in a mouse alopecia areata model was evaluated using increase in the hair loss score as an index of worsening of symptoms. The mouse alopecia areata model was prepared by a partially modified method by Wang et al. (Journal of Investigative Dermatology, 2015, vol. 135, p. 2530-2532).
Female C3H/HeJ mice (CLEA Japan, Inc.) with spontaneous hair loss in 70% or more of the body surface were used as donor mice. The donor mice were euthanized by cervical dislocation, and then the groin, axilla, and auricular lymph nodes were aseptically removed. […]
On Day 49, photographs of the back and the abdomen of the mice were taken under isoflurane anesthesia. The status of hair loss was evaluated by a partially modified method by Alli et al. (Journal of Immunology, 2012, vol. 188, p. 477-486). In other words, the ratio of the area of hair loss site to the body surface area was scored in accordance with the criteria mentioned in Table 4, and regarded as the hair loss score. Specifically, the hair loss score was determined based on the numerical value of the ratio calculated from Formula (4): […]
Grouping was performed using the mouse hair loss score calculated on Day 49 as an index (the hair loss score on Day 49 (mean±standard error): 3.6±0.66). […]

SMILES	increase in the ear thickness (change in the ear thickness, next day of final induction) [1]	increase in the hair loss score (Day 91) [2]
CC(=O)N1CCCC[C@@H]1C(=O)Nc1cc(Cl)c2c(c1)CCCN2Cc1ccc(C(F)(F)F)cc1 [Example 1, (R)-1-acetyl-N-(8-chloro-1-(4-(trifluoromethyl)benzyl)-1,2,3,4-tetrahydroquinolin-6-yl)piperidine-2-carboxamide]	statistically significantly suppressed	
CC(=O)N1CCCC[C@@H]1C(=O)Nc1cc(Cl)c2c(c1)CCN2Cc1ccc(C(F)(F)F)cc1 [Example 4, (R)-1-acetyl-N-(7-chloro-1-(4-(trifluoromethyl)benzyl)indolin-5-yl)piperidine-2-carboxamide]	statistically significantly suppressed	suppressed
CC(=O)N1CCCC[C@@H]1C(=O)Nc1cc(Cl)c2c(c1)CCN2C[C@H]1CC[C@H](C(F)(F)F)CC1 [Example 9, (R)-1-acetyl-N-(7-chloro-1-((trans-4-(trifluoromethyl)cyclo-hexyl)methyl)indolin-5-yl)piperidine-2-carboxamide]	statistically significantly suppressed	
